# Assay results published in patent publication US20260034192A1 (University of Saskatchewan, priority 2022, published 2026).
# Where “and” joins values, the source holds several entries; their conditions need not be identical. Equal values may be shown once. Marks after values point to notes of the source that are not given here. Ends that are not written are not given here.
# Assays:
# Assay type in all cases: in vivo, cattle
# [1] = system: Brahman x Angus cross beef post-partum cows; experiment: Field trial of fixed-time AI after cetrorelix versus estradiol protocol (Example 8)
# Description: This field trial was conducted by a faculty member of the Federal University of Santa Maria at a client beef farm in Brazil in December 2022. A total of 216 Brahman x Angus cross beef post-partum cows were used for this experiment. Cows were divided into two treatment groups ([…]) and were either given cetrorelix 3 mg i/m or estradiol benzoate on a random day of the cycle (defined as Day 0). An intravaginal progesterone device (CIDR) was placed in all cows on Day 0. The CIDR devices were removed on Day 8 and animals were given prostaglandin F2a analog and equine choriogonadotropin (eCG). Fixed-time artificial insemination was done 54 hrs after CIDR removal and animals were given GnRH at this time. Pregnancy diagnosis was performed on Day 30 after artificial insemination. Transrectal ultrasound examinations were performed on Day 0, Day 8, Day 10 and Day 40.
# mature Angus heifers = experiment: Cetrorelix versus estradiol benzoate synchronization protocol with AI, random day of cycle (Example 7)
# Description: This experiment was conducted on 38 mature Angus heifers at the Federal University of Santa Maria in Brazil. Heifers on a random day of the cycle (defined as Day 0) were divided into 2 groups (n=19 per group) and treated with a single i/m injection of 3 mg cetrorelix or with estradiol benzoate (1 mg i/m). A progesterone-releasing device (CIDR) was placed in the vagina of heifers at this time. Eight days after the cetrorelix or estradiol treatments, heifers were given 500 ug cloprostenol (prostaglandin analog) i/m injections and the CIDR device was removed. […] Heifers were given 250 ug gonadorelin acetate (GnRH analog) i/m injection at the time of artificial insemination. […] Pregnancy diagnosis was done 29-30 days after artificial insemination.
# [2] = system: Hereford crossbred heifers; experiment: Cetrorelix pre-treatment before kisspeptin-10 in low-progesterone heifer model (Example 1); conditions: for Ovulation rate after treatments: number of heifer/total: extant dominant follicle
# Description: Methods: The human Kisspeptin-10 (hKP-10) peptide (YNWNSFGLRF-NH2; SEQ ID NO: 1) was custom synthetized at >95% of purity (MW: 1318.44 g/mol) by GenScript USA Inc, Piscataway, NJ, USA. The sequence is based on the predicted C-terminal region (112-121-NH2) of human metastin (Gen Bank accession #AY117143) and has been previously used in cattle. The peptide was previously tested for solubility and was dissolved in ultrapure water at 10 mg/mL.
# The heifers were maintained in outdoor pens at the University of Saskatchewan Goodale Research Farm (52° north and 106° west). Heifers were fed barley silage and had hay and water ad libitum. A mineral salt block was available to heifers throughout the study period. All procedures were performed in accordance with Canadian Council on Animal Care and were approved by the University of Saskatchewan Protocol Review Committee.
# Immediately after ultrasound examination, heifers were given PGF2a twice at an interval of 12-hours. The low-progesterone bovine model described previously (Leonardi et al. 2019) was used to test the hypothesis. Briefly, the ovaries were examined daily by ultrasonography to detect ovulation. Three days after ovulation, follicles ≥5 mm in diameter in both ovaries were ablated by transvaginal ultrasound-guided follicle aspiration, inducing the emergence of new follicular wave 1.5 days after the procedure (Bergfelt et al. 1994). After follicular ablation, a progesterone device was placed in the vagina (CIDR; Zoetis). The day of wave emergence (Day 0) was defined as the day when the follicle of wave was first recorded (4 to 5 mm in diameter) with concurrent increase in diameter. Heifers were given PGF2α im on Days 3.5 and 4 (i.e., 8 and 8.5 days after ovulation) to cause luteolysis, however, the CIDR devices were left in place until Day 12 to maintain a low-progesterone milieu sufficient to prevent spontaneous ovulation. On Day 6, an indwelling jugular catheter was placed as described (Bergfelt et al. 1997) and heifers were assigned randomly to three groups (n=5 per group): 1) 3 iv doses of 15 mg human kisspeptin-10 at 1 h intervals (Kp10 group), 2) pretreatment with single im dose of Cetrorelix acetate (20 μg/Kg of body weight, GnRH antagonist—Sigma #C5249 diluted in 5% D-Manitol w/v, Sigma #M4125) followed 3 h later with 3 iv doses of 15 mg human kisspeptin-10 at 1 h intervals (Cetrorelix group), or 3) 3 iv doses of normal saline at 1 h intervals (Control group). Following treatment (on Day 6), ovarian ultrasound examinations were performed daily until the end of the experiment to detect ovulation of the extant dominant follicle (i.e., dominant follicle present at the time of treatment) or of the dominant follicle originating from a subsequent wave. The progesterone device was withdrawn on Day 12 (i.e., thirteen days after insertion) and ultrasound examinations were continued until ovulation was detected.
# Blood samples and hormone assays: Serial blood samples on the day of treatment were collected at 15 minute intervals from −30 to 150 min (0 min=time of first hKP-10 or saline injection) using the indwelling jugular catheter. All blood samples were collected in heparinized tubes (Vacutainer, BD, Franklin Lakes NJ, USA). Immediately after sampling, tubes were centrifuged at 1,500×g for 15 min, and plasma was separated and stored at −20° C.
# The plasma samples from both experiments were analyzed for LH and progesterone concentration at the University of Wisconsin (Madison, WI, USA) in Dr O. J. Ginther's Research Laboratory. Plasma LH concentrations were measured with a validated radioimmunoassay for cattle (Bolt et al. 1990) with modifications as reported Ginther et al. 1999). Briefly, LH concentrations were measured in duplicate using USDA-bLH-B-6 for ^125I-iodination and for preparing reference standards, and USDA-309-684P as the primary antibody (National Hormone and Pituitary Program, Torrance, CA, USA). […]
# [3] = 30 days after fixed-time artificial insemination
# [4] = 3 mg cetrorelix or 1 mg estradiol benzoate i/m
# [5] = Day 6 of wave, low progesterone, Kp10 3 x 15 mg iv, Cetrorelix 20 μg/Kg im 3 h before Kp10
# [6] = Kp10 3 x 15 mg iv, Cetrorelix 20 μg/Kg im 3 h before Kp10
compound,measurement,setting,value
"C[C@]12CC[C@@H]3c4ccc(OC(=O)c5ccccc5)cc4CC[C@H]3[C@@H]1CC[C@@H]2O [Estradiol benzoate, estradiol benzoate]",Conception rate: Percent,[1]; [3],45.6%
same,Conception rate: Pregnant/AI,[1]; [3],48/106*
same,Conception rate: Percent,"[1]; 30 days after fixed-time artificial insemination, listed as estradiol",45.6%
same,Size of the dominant follicle on Day 8 (at PGF),"[1]; cetrorelix 3 mg i/m or estradiol benzoate on Day 0, CIDR removal Day 8, in mm",8.60 ± 0.39
same,Size of the dominant follicle on Day 10 (at AI),"[1]; cetrorelix 3 mg i/m or estradiol benzoate on Day 0, in mm",11.38 ± 0.56
same,Pregnant/Double AI,mature Angus heifers; [4],7/12
same,"Pregnant/Double AI, percent",mature Angus heifers; [4],58%
same,Pregnant/Single AI,mature Angus heifers; [4],6/7
same,"Pregnant/Single AI, percent",mature Angus heifers; [4],86%
same,"Pregnant/Total, percent (pregnancy rate)","mature Angus heifers; random day of cycle, 3 mg cetrorelix i/m or 1 mg estradiol benzoate i/m, CIDR 8 days",68%
same,Pregnant/Total,"mature Angus heifers; random day of cycle, 3 mg cetrorelix i/m or 1 mg estradiol benzoate i/m, CIDR 8 days, PGF, GnRH at AI",13/19
Kp10: human Kisspeptin-10 (hKP-10) peptide YNWNSFGLRF-NH2; SEQ ID NO: 1 (listed as Homo sapiens),Interval between treatment and ovulation (hours after treatment),"[2]; Day 6 of wave, low progesterone, Kp10 3 x 15 mg iv",48 h
same,Dominant follicle diameter 24 h after treatment,[2]; [5],12.24 ± 0.89 mm
same,Dominant follicle diameter 48 h after treatment,[2]; [5],16.51 mm
same,Dominant follicle diameter at time of treatment,[2]; [5],11.34 ± 0.91 mm
same,Emergence of a new follicular wave after treatment,"[2]; Day 6 of wave, low progesterone, Kp10 3 x 15 mg iv, Cetrorelix single im 20 μg/Kg 3 h before Kp10",2.75 ± 0.75 days
same,Day of ovulation of new dominant follicles after CIDR removal (Day 12),[2]; Day of follicular wave,15
same,Heifers in which a new wave emergence occurred,[2]; [6],4 of 5
same,Number of ovulations after CIDR removal on Day 12: Extant dominant follicle,[2]; [6],1/1
same,Number of ovulations after CIDR removal on Day 12: New dominant follicle,[2]; [6],4/4
same,Plasma LH concentration / kisspeptin-induced LH surge,[2]; [6],higher plasma LH concentrations
same,Ovulation rate after treatments: number of heifer/total,[2]; [5],4 of 5 and 4/5^a
same,Ovulation rate after treatments: number of heifer/total,"[2]; Day 6 of wave, low progesterone, Kp10 3 x 15 mg iv, Cetrorelix 20 μg/Kg im 3 h before Kp10, listed as kisspeptin",4 out of 5
